The values below come from the supplement of paper PMC4862054.

Structures are written as SMILES.

Assay [1] deals with MDA-MB-453. As to conditions: 72 h. The method, boiled down:
(§1)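 To measure viability, fluorescence at 560/590 nm was read after 2.5 µl CellTiter-Blue had been added for 2 h at 37 °C. Cells from breast cancer lines had been seeded in 20 µl suspension onto 384-well plates pre-loaded with compound dissolved in 5 µl medium and kept for 72 h. EC50 comes from a fitted percent-inhibition dose-response curve censored at the highest concentration, after per-plate normalisation to vehicle and a positive kill control, Z'-factor checks, and removal of rows with zero drug sensitivity score.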

The test system of the next assay is CAL-120. The note with it: 72 h. In a few lines: (§2)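 The plates used were 384-well plates holding compound at 5 concentrations in 10-fold steps across a compound-specific 10,000-fold range, into which breast cancer cell lines were seeded in 20 µl suspension. Following 72 h incubation, CellTox Green fluorescence was read at 485/520 nm, and CellTiter-Glo luminescence was read after 10 min at room temperature. Normalisation on each plate used 0.1 % DMSO and a positive kill control. Dose-response curves gave the EC50, which was censored at the top concentration.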

Assay [2] relates to MDA-MB-453. Put plainly: normalised response (% of control), CellTiter-Glo; higher = more viable cells (100 = DMSO, 0 = benzethonium chloride kill control). As to conditions: incubation time: 72 h. In a few lines: (§3)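 Every value is a normalised signal taken at one concentration of a dilution series. Compound was placed in 384-well plates at 5 concentrations in 10-fold steps over a compound-specific 10,000-fold range, and 20 µl of breast cancer cell suspension was seeded onto it. After 72 h, CellTox Green fluorescence (485/520 nm) was measured first and CellTiter-Glo luminescence second, following 10 min at room temperature. Each plate was scaled to 0.1 % DMSO (100) and a positive kill control (0).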

Another assay deals with BT-474. The description is as above. The note with it: incubation time: 72 h. The method, boiled down:
as §3

A further assay relates to HCC1937. Described as above. The note with it: incubation time: 72 h. The method, boiled down:
as §3

For assay [3], the system named is CAL-85-1. The description is as above. The note with it: incubation time: 72 h. The method, boiled down: as §3
The test system of a further assay is DU-4475. Described as above. As to conditions: incubation time: 72 h. In a few lines:
as §3

Assay [4] relates to MFM-223. Described as above. The note with it: incubation time: 72 h. In a few lines:
as §3

In assay [5] the test system is MDA-MB-468. The assay is described as above. As to conditions: incubation time: 72 h. The method, boiled down:
as §3

The next assay concerns SK-BR-3. The description is as above. As to conditions: incubation time: 72 h. In a few lines: as §3
A further assay has as its system HCC1599. The assay is described as above. The note with it: incubation time: 72 h. The method, boiled down: as §3
The next assay deals with MDA-MB-436. The description is as above. As to conditions: incubation time: 72 h. In a few lines:
as §3

Another assay relates to CAL-148. The description is as above. The note with it: incubation time: 72 h. The method, boiled down: as §3
The next assay concerns MDA-MB-231. The description is as above. The note with it: incubation time: 72 h. In a few lines: as §3
Another assay concerns CAL-51. The assay is described as above. The note with it: incubation time: 72 h. The method, boiled down:
as §3

Assay [6] has as its system MDA-MB-468. As to conditions: 72 h. The method, boiled down:
as §2

The subject of assay [7] is CAL-85-1. The note with it: 72 h. In a few lines: as §1
The test system of assay [8] is MFM-223. The note with it: 72 h. In a few lines: as §1
The test system of a further assay is BT-549. The note with it: 72 h. The method, boiled down: as §1
The next assay deals with HDQ-P1. The note with it: 72 h. The method, boiled down: as §1

For `C[C@]12C=CC(=O)C=C1CC[C@@H]1[C@@H]2[C@@H](O)C[C@@]2(C)[C@H]1CC[C@]2(O)C(=O)CO` [Prednisolone], the “EC50, CellTiter-Blue viability” value in the assay with MDA-MB-453 [1] stood at 171 nM. Further, in the assay with CAL-120, the “EC50, CellTiter-Glo” value was 99.1 nM.
With `C[C@]12C=CC(=O)C=C1CC[C@@H]1[C@@H]2[C@@H](O)C[C@@]2(C)[C@H]1CC[C@]2(O)C(=O)CO` [Prednisolone] (1000 nM), the normalised response turned out to be 98.1% with MDA-MB-453 [2]; 158% with BT-474; 97.6% in the assay on HCC1937; 113% in the assay on CAL-85-1 [3]; 101% in the assay with DU-4475; 106% in the assay on MFM-223 [4]. Further, the normalised response with MDA-MB-468 [5] amounted to 121%; in the assay on SK-BR-3, 90.3%; in the assay with HCC1599, 109%; in the assay with MDA-MB-436, 99.7%; in the assay on CAL-148 it was 102%; in the assay on MDA-MB-231, 154%. This molecule registered a normalised response in the assay on CAL-51 of 120%.
As to `CC(C)N(CCCNC(=O)Nc1ccc(C(C)(C)C)cc1)C[C@H]1O[C@@H](n2cc(Br)c3c(N)ncnc32)[C@H](O)[C@@H]1O` [SGC0946], in the assay with MDA-MB-468 [6], the “EC50, CellTiter-Glo” value amounted to 2470 nM.
As to `CNC(=O)c1cc(Oc2ccc(NC(=O)Nc3ccc(Cl)c(C(F)(F)F)c3)cc2)ccn1` [Sorafenib], the “EC50, CellTiter-Blue viability” value was determined as 159 nM with CAL-85-1 [7], 952 nM in the assay on MFM-223 [8] and 27.1 nM in the assay on BT-549.
Consider `CNC(=O)c1cc(Oc2ccc(NC(=O)Nc3ccc(Cl)c(C(F)(F)F)c3)cc2)ccn1` [Sorafenib] (100 nM), for which the normalised response worked out at 90.5% in the assay on MDA-MB-453 [2]; 101% with BT-474; 104% with HCC1937; 107% in the assay on CAL-85-1 [3]; 105% in the assay with DU-4475; 104% with MFM-223 [4]. Besides, the normalised response with MDA-MB-468 [5] was found to be 117%; in the assay on SK-BR-3, 104%; with HCC1599, 98.7%; in the assay on MDA-MB-436, 109%; with CAL-148, 110%; in the assay on MDA-MB-231 it was 104%. Further, in the assay on CAL-51, the normalised response was 83.9%.
In the case of `CCN(CC)CCNC(=O)c1c(C)[nH]c(/C=C2\C(=O)Nc3ccc(F)cc32)c1C` [Sunitinib], in the assay on HDQ-P1, the “EC50, CellTiter-Blue viability” value was 721 nM.
With `CCN(CC)CCNC(=O)c1c(C)[nH]c(/C=C2\C(=O)Nc3ccc(F)cc32)c1C` [Sunitinib] (100 nM), the normalised response stood at 92% in the assay with MDA-MB-453 [2]; 107% in the assay with BT-474; 99.4% with HCC1937; 104% with CAL-85-1 [3]; 99.7% in the assay on DU-4475; 107% in the assay with MFM-223 [4]. The normalised response came out at 108% in the assay with MDA-MB-468 [5]; 112% in the assay on SK-BR-3; 107% with HCC1599; 105% with MDA-MB-436; 104% in the assay on CAL-148; 109% in the assay on MDA-MB-231. In the assay with CAL-51, this molecule yielded a normalised response of 88.4%.
With `CC[C@@]1(O)C(=O)OCc2c1cc1n(c2=O)Cc2cc3c(CN(C)C)c(O)ccc3nc2-1` [Topotecan] (1000 nM), the normalised response was found to be 87.6% in the assay with MDA-MB-453 [2]; 81.8% with BT-474; 79.3% with HCC1937; 50.1% in the assay with CAL-85-1 [3]; 38.4% with DU-4475; 91.4% in the assay on MFM-223 [4]. Besides, the normalised response amounted to 11.1% in the assay on MDA-MB-468 [5]; 47.6% with SK-BR-3; 24.1% in the assay on HCC1599; 42.6% in the assay with MDA-MB-436; 24.3% in the assay with CAL-148; 81.6% in the assay on MDA-MB-231. Also, the normalised response in the assay with CAL-51 was found to be 48%.
